The structures appear in SMILES notation. Where a name gives a salt, the structure may show the parent alone.

The target of this assay is T1, Tyk2 (Homo sapiens, UniProt P29597).
T1 construct: purchased Invitrogen
Description: Tyk2 enzyme inhibition test (LANCE method). Format: biochemical. The following applies: test compound 1 μM; well without enzyme = 100% inhibition; read-out: Tyk2 enzyme inhibitory activity (%, 1 μM). Here is the method:
Tyk2 Enzyme Inhibition Test
Tyk2 enzyme inhibitory activity of test compounds was measured by LANCE method (PerkinElmer). First, a test compound diluted with assay buffer (50 mM HEPES (pH=7.5), 10 mM MgCl2, 1 mM EGTA, 2 mM DTT, 0.01% Tween20, 0.01% BSA) was added to 384-well plate at 2 μL each. Then, a Tyk2 (Invitrogen) solution and a fluorescence-labeled peptide substrate (ULight-JAK1, PerkinElmer) solution diluted with assay buffer at 375 ng/mL and 300 nM, respectively were added at 2 μL each. Then, enzyme reaction was started by adding 2 μL each of ATP solution prepared with assay buffer at 30 μM. After the reaction at room temperature for 1 hr, Detection Buffer (PerkinElmer) prepared to be 20 mM EDTA, 4 nM europium-labeled anti-phosphotyrosine antibody (PerkinElmer) was added at 6 μL each. After standing at room temperature for 1 hr, fluorescence intensity (excitation wavelength 340 nm, fluorescence wavelength 665 nm, delay time 100 microsecond) was measured by a plate reader, Envision (PerkinElmer). The inhibitory activity of each compound was calculated as relative value where fluorescence intensity of a well without enzyme is considered as 100% inhibition.

T1 sequence (P29597 whole entry): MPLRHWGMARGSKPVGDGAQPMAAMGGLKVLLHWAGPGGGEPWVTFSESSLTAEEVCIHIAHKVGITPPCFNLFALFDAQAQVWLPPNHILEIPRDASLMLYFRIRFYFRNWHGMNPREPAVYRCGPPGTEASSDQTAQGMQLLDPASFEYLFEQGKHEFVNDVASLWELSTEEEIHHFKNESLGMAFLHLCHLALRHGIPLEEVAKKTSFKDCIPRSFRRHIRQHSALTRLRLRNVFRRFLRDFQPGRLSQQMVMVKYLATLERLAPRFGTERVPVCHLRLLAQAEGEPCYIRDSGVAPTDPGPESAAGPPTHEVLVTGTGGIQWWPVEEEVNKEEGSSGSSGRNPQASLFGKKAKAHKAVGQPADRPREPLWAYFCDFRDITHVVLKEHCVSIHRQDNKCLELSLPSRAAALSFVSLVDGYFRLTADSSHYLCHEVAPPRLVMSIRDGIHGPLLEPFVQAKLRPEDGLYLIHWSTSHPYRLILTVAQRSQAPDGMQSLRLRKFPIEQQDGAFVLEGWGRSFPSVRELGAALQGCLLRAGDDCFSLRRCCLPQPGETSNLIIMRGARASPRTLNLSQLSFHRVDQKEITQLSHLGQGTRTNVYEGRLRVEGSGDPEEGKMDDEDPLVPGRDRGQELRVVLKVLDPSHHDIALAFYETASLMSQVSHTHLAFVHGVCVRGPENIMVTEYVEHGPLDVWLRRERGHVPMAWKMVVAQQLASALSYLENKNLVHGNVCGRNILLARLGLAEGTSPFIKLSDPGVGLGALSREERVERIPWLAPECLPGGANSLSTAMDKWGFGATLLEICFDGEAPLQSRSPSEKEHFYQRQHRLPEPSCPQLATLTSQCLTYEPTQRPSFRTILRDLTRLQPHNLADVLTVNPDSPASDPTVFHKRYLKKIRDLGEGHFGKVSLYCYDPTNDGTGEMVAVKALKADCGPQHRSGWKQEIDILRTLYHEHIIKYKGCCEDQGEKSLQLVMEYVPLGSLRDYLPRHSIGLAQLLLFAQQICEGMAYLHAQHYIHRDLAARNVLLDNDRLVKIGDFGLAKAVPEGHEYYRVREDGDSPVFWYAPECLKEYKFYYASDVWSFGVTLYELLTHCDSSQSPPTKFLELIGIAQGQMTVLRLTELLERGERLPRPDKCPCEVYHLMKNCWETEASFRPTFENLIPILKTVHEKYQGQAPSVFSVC

Take `N#C[C@@]1(C2CC2)CCN(c2ccnc(Nc3ccc(N4CCOCC4)cn3)c2)C1=O` [Example 1, (3S)-3-cyclopropyl-1-(2-((5-(morpholin-4-yl)pyridin-2-yl)amino)pyridin-4-yl)-2-oxopyrrolidine-3-carbonitrile]: the inhibition at 1 µM was found to be 99%.
For the molecule `CC(C)(O)c1ccc(Nc2cc(N3CC[C@@](C#N)(C4CC4)C3=O)ccn2)nc1` [Example 3, (3S)-3-cyclopropyl-1-(2-((5-(2-hydroxypropan-2-yl)pyridin-2-yl)amino)pyridin-4-yl)-2-oxopyrrolidine-3-carbonitrile], the inhibition at 1 µM came to 99%.
On to `CNC(=O)c1cc(Nc2cc(N3CC[C@@](C#N)(C4CC4)C3=O)ccn2)nn1C` [Example 5, 3-((4-((3S)-3-cyano-3-cyclopropyl-2-oxopyrrolidin-1-yl)pyridin-2-yl)amino)-N,1-dimethyl-1H-pyrazole-5-carboxamide], for which the inhibition at 1 µM came out at 101%.
With `CC(=O)Nc1ccnc(Nc2cc(N3CC[C@@](C#N)(C4CC4)C3=O)ccn2)c1` [Example 29, N-(2-((4-((3S)-3-cyano-3-cyclopropyl-2-oxopyrrolidin-1-yl)pyridin-2-yl)amino)pyridin-4-yl)acetamide] the figure was 100%; with `Cn1nc(Nc2cc(N3CC[C@@](C#N)(C4CC4)C3=O)ccn2)cc1N1CCOCC1` [Example 31, (3S)-3-cyclopropyl-1-(2-((1-methyl-5-(morpholin-4-yl)-1H-pyrazol-3-yl)amino)pyridin-4-yl)-2-oxopyrrolidine-3-carbonitrile], 100%; with `N#C[C@@]1(C2CC2)CCN(c2ccnc(Nc3cc(C(F)(F)F)ncn3)c2)C1=O` [Example 43, (3S)-3-cyclopropyl-2-oxo-1-(2-((6-(trifluoromethyl)pyrimidin-4-yl)amino)pyridin-4-yl)pyrrolidine-3-carbonitrile], 95%.
Take `N#C[C@@]1(C2CC2)CCN(c2ccnc(Nc3cccnn3)c2)C1=O` [Example 92, (3S)-3-cyclopropyl-2-oxo-1-(2-(pyridazin-3-ylamino)pyridin-4-yl)pyrrolidine-3-carbonitrile]: the inhibition at 1 µM was determined as 96%.
In the case of `CCC1(C#N)CCN(c2ccnc(Nc3ccc(N4CCOCC4)cn3)c2)C1=O` (stereo not shown) [Example 126, 3-ethyl-1-(2-((5-(morpholin-4-yl)pyridin-2-yl)amino)pyridin-4-yl)-2-oxopyrrolidine-3-carbonitrile hydrochloride] it was 72%; in that of `N#CC1(C2CC2)CCN(c2ccnc(Nc3ccc(N4CCOCC4)cn3)c2)C1=O` (stereo not shown) [Example 127, 3-cyclopropyl-1-(2-((5-(morpholin-4-yl)pyridin-2-yl)amino)pyridin-4-yl)-2-oxopyrrolidine-3-carbonitrile], 83%.
Turning to `CC(C)(CO)n1cc(Nc2cc(N3CCC(C#N)(C4CC4)C3=O)ccn2)cn1` (stereo not shown) [Example 129, 3-cyclopropyl-1-(2-((1-(1-hydroxy-2-methylpropan-2-yl)-1H-pyrazol-4-yl)amino)pyridin-4-yl)-2-oxopyrrolidine-3-carbonitrile], the inhibition at 1 µM was 90%.
With `CNC(=O)c1cc(Nc2cc(N3C(=O)[C@](C#N)(C4CC4)C[C@H]3C)ccn2)nn1C` [Example 136, 3-((4-((3S,5R)-3-cyano-3-cyclopropyl-5-methyl-2-oxopyrrolidin-1-yl)pyridin-2-yl)amino)-N,1-dimethyl-1H-pyrazole-5-carboxamide] the figure was 106%.
`C[C@@H]1C[C@@](C#N)(C2CC2)C(=O)N1c1ccnc(Nc2cc(C(N)=O)n(C)n2)c1` [Example 137, 3-((4-((3S,5R)-3-cyano-3-cyclopropyl-5-methyl-2-oxopyrrolidin-1-yl)pyridin-2-yl)amino)-1-methyl-1H-pyrazole-5-carboxamide]: the inhibition at 1 µM turned out to be 107%.
Take `Cn1nc(Nc2cc(N3CC[C@@](C#N)(C4CC4)C3=O)ccn2)cc1C(N)=O` [Example 138, 3-((4-((3S)-3-cyano-3-cyclopropyl-2-oxopyrrolidin-1-yl)pyridin-2-yl)amino)-1-methyl-1H-pyrazole-5-carboxamide]: the inhibition at 1 µM is 102%.

Source of the values: patent US20160159773A1, “HETEROCYCLIC COMPOUND” (TAKEDA PHARMACEUTICAL COMPANY LIMITED, priority 2013, published 2016).
